The source of these data is US20050197350A1, “Novel quinoline, tetrahydroquinazoline, and pyrimidine derivatives and methods of treatment related to the use thereof” (TAISHO PHARMACEUTICAL CO., LTD., priority 2003, published 2005).

The test relates to MCH receptors. Nature of the test: MCH receptor activity class (method not given). Conditions: class by percent of control at 10^−7 M or IC50.

On to `Cc1cc(N(C)C)nc(N[C@H]2CC[C@@H](NC(=O)c3cccc(C(F)(F)F)c3)CC2)n1` [compound 2954, N-(cis-4-{[4-(dimethylamino)-6-methylpyrimidin-2-yl]amino}cyclohexyl)-3-(trifluoromethyl)benzamide], for which the class was 1 (Class 1: The value of percent of control at 10^−7 M was less than 40% or the value of IC50 was less than 50 nM.).

Turning to `COc1ccccc1C(=O)N[C@H]1CC[C@@H](Nc2nc(C)cc(N(C)C)n2)CC1` [compound 2955], the class is 3 (Class 3 The value of percent of control at 10^−7 M was more than 60% or the value of IC50 was more than 200 nM.).

In the case of `COc1ccc(C(=O)N[C@H]2CC[C@@H](Nc3nc(C)cc(N(C)C)n3)CC2)cc1` [compound 2956], the class is 3 (Class 3 The value of percent of control at 10^−7 M was more than 60% or the value of IC50 was more than 200 nM.). `Cc1cc(N(C)C)nc(N[C@H]2CC[C@@H](NC(=O)c3cccc(C#N)c3)CC2)n1` [compound 2957, 3-cyano-N-(cis-4-{[4-(dimethylamino)-6-methylpyrimidin-2-yl]amino}cyclohexyl)benzamide]: the class is reported as 1 (Class 1: The value of percent of control at 10^−7 M was less than 40% or the value of IC50 was less than 50 nM.). On to `Cc1cc(N(C)C)nc(N[C@H]2CC[C@@H](NC(=O)c3ccc(C#N)cc3)CC2)n1` [compound 2958, 4-cyano-N-(cis-4-{[4-(dimethylamino)-6-methylpyrimidin-2-yl]amino}cyclohexyl)benzamide], for which the class is listed as 1 (Class 1: The value of percent of control at 10^−7 M was less than 40% or the value of IC50 was less than 50 nM.). In the case of `COc1cc(OC)cc(C(=O)N[C@H]2CC[C@@H](Nc3nc(C)cc(N(C)C)n3)CC2)c1` [compound 2959, N-(cis-4-{[4-(dimethylamino)-6-methylpyrimidin-2-yl]amino}cyclohexyl)-3,5-dimethoxybenzamide], the class is reported as 1 (Class 1: The value of percent of control at 10^−7 M was less than 40% or the value of IC50 was less than 50 nM.). Take `Cc1cc(N(C)C)nc(N[C@H]2CC[C@@H](NC(=O)c3ccc(C(F)(F)F)c(F)c3)CC2)n1` [compound 2960, N-(cis-4-{[4-(dimethylamino)-6-methylpyrimidin-2-yl]amino}cyclohexyl)-3-fluoro-4-(trifluoromethyl)benzamide]: the class is 2 (Class 2: The value of percent of control at 10^−7 M was from 40% to 60% or the value of IC′50 was from 50 nM to 200 nM.). For `Cc1cc(N(C)C)nc(N[C@H]2CC[C@@H](NC(=O)c3ccc(F)c(C(F)(F)F)c3)CC2)n1` [compound 2961], the class is 1 (Class 1: The value of percent of control at 10^−7 M was less than 40% or the value of IC50 was less than 50 nM.). The same measure for `Cc1cc(N(C)C)nc(N[C@H]2CC[C@@H](NC(=O)c3cc(F)cc(C(F)(F)F)c3)CC2)n1` [compound 2962, N-(cis-4-{[4-(dimethylamino)-6-methylpyrimidin-2-yl]amino}cyclohexyl)-3-fluoro-5-(trifluoromethyl)benzamide]: 1 (Class 1: The value of percent of control at 10^−7 M was less than 40% or the value of IC50 was less than 50 nM.); for `Cc1cc(N(C)C)nc(N[C@H]2CC[C@@H](NC(=O)c3ccc(F)c(Cl)c3)CC2)n1` [compound 2963]: 1 (Class 1: The value of percent of control at 10^−7 M was less than 40% or the value of IC50 was less than 50 nM.); for `Cc1cc(N(C)C)nc(N[C@H]2CC[C@@H](NC(=O)c3ccc(F)c(C)c3)CC2)n1` [compound 2964, N-(cis-4-{[4-(dimethylamino)-6-methylpyrimidin-2-yl]amino}cyclohexyl)-4-fluoro-3-methylbenzamide]: 1 (Class 1: The value of percent of control at 10^−7 M was less than 40% or the value of IC50 was less than 50 nM.). The same measure for `Cc1cc(N(C)C)nc(N[C@H]2CC[C@@H](NC(=O)c3ccc(C)c(F)c3)CC2)n1` [compound 2965, N-(cis-4-{[4-(dimethylamino)-6-methylpyrimidin-2-yl]amino}cyclohexyl)-3-fluoro-4-methylbenzamide]: 1 (Class 1: The value of percent of control at 10^−7 M was less than 40% or the value of IC50 was less than 50 nM.).

Consider `Cc1cc(N(C)C)nc(N[C@H]2CC[C@@H](NC(=O)c3cc(Cl)cc(Cl)c3)CC2)n1` [compound 2966, 3,5-dichloro-N-(cis-4-{[4-(dimethylamino)-6-methylpyrimidin-2-yl]amino}cyclohexyl)benzamide], for which the class was 1 (Class 1: The value of percent of control at 10^−7 M was less than 40% or the value of IC50 was less than 50 nM.). The result for `Cc1cc(N(C)C)nc(N[C@H]2CC[C@@H](NC(=O)c3cccc(OC(F)(F)F)c3)CC2)n1` [compound 2967, N-(cis-4-{[4-(dimethylamino)-6-methylpyrimidin-2-yl]amino}cyclohexyl)-3-(trifluoromethoxy)benzamide] reads 1 (Class 1: The value of percent of control at 10^−7 M was less than 40% or the value of IC50 was less than 50 nM.). In the case of `Cc1cc(N(C)C)nc(N[C@H]2CC[C@@H](NC(=O)c3cc(F)cc(F)c3)CC2)n1` [compound 2968, N-(cis-4-{[4-(dimethylamino)-6-methylpyrimidin-2-yl]amino}cyclohexyl)-3,5-difluorobenzamide], the class is listed as 1 (Class 1: The value of percent of control at 10^−7 M was less than 40% or the value of IC50 was less than 50 nM.). With `Cc1cc(N(C)C)nc(N[C@H]2CC[C@@H](NC(=O)c3ccc(Br)c(C)c3)CC2)n1` [compound 2969, 4-bromo-N-(cis-4-{[4-(dimethylamino)-6-methylpyrimidin-2-yl]amino}cyclohexyl)-3-methylbenzamide], the class is on record as 1 (Class 1: The value of percent of control at 10^−7 M was less than 40% or the value of IC50 was less than 50 nM.).

For `CCc1cccc(C(=O)N[C@H]2CC[C@@H](Nc3nc(C)cc(N(C)C)n3)CC2)c1` [compound 2970, N-(cis-4-{[4-(dimethylamino)-6-methylpyrimidin-2-yl]amino}cyclohexyl)-3-ethylbenzamide], the class was 3 (Class 3 The value of percent of control at 10^−7 M was more than 60% or the value of IC50 was more than 200 nM.).

In the case of `CCOc1ccc(C(=O)N[C@H]2CC[C@@H](Nc3nc(C)cc(N(C)C)n3)CC2)cc1` [compound 2971], the class is listed as 3 (Class 3 The value of percent of control at 10^−7 M was more than 60% or the value of IC50 was more than 200 nM.). The same measure for `Cc1cc(N(C)C)nc(N[C@H]2CC[C@@H](NC(=O)c3ccc(C(F)(F)F)cc3)CC2)n1` [compound 2972, N-(cis-4-{[4-(dimethylamino)-6-methylpyrimidin-2-yl]amino}cyclohexyl)-4-(trifluoromethyl)benzamide]: 2 (Class 2: The value of percent of control at 10^−7 M was from 40% to 60% or the value of IC′50 was from 50 nM to 200 nM.); for `Cc1cc(N(C)C)nc(N[C@H]2CC[C@@H](NC(=O)c3ccc(Br)cc3)CC2)n1` [compound 2973, 4-bromo-N-(cis-4-{[4-(dimethylamino)-6-methylpyrimidin-2-yl]amino}cyclohexyl)benzamide]: 1 (Class 1: The value of percent of control at 10^−7 M was less than 40% or the value of IC50 was less than 50 nM.); for `CCc1ccc(C(=O)N[C@H]2CC[C@@H](Nc3nc(C)cc(N(C)C)n3)CC2)cc1` [compound 2974, N-(cis-4-{[4-(dimethylamino)-6-methylpyrimidin-2-yl]amino}cyclohexyl)-4-ethylbenzamide]: 2 (Class 2: The value of percent of control at 10^−7 M was from 40% to 60% or the value of IC′50 was from 50 nM to 200 nM.). The same measure for `CCOc1cc(OCC)cc(C(=O)N[C@H]2CC[C@@H](Nc3nc(C)cc(N(C)C)n3)CC2)c1` [compound 2975, N-(cis-4-{[4-(dimethylamino)-6-methylpyrimidin-2-yl]amino}cyclohexyl)-3,5-diethoxybenzamide]: 1 (Class 1: The value of percent of control at 10^−7 M was less than 40% or the value of IC50 was less than 50 nM.); for `CCOc1cccc(C(=O)N[C@H]2CC[C@@H](Nc3nc(C)cc(N(C)C)n3)CC2)c1` [compound 2976, N-(cis-4-{[4-(dimethylamino)-6-methylpyrimidin-2-yl]amino}cyclohexyl)-3-ethoxybenzamide]: 2 (Class 2: The value of percent of control at 10^−7 M was from 40% to 60% or the value of IC′50 was from 50 nM to 200 nM.). For `Cc1cc(N(C)C)nc(N[C@H]2CC[C@@H](NC(=O)c3cccc(OC(C)C)c3)CC2)n1` [compound 2977, N-(cis-4-{[4-(dimethylamino)-6-methylpyrimidin-2-yl]amino}cyclohexyl)-3-isopropoxybenzamide], the class is reported as 1 (Class 1: The value of percent of control at 10^−7 M was less than 40% or the value of IC50 was less than 50 nM.). The result for `Cc1cc(N(C)C)nc(N[C@H]2CC[C@@H](NC(=O)c3cncc(Br)c3)CC2)n1` [compound 2978, 5-bromo-N-(cis-4-{[4-(dimethylamino)-6-methylpyrimidin-2-yl]amino}cyclohexyl)nicotinamide] reads 1 (Class 1: The value of percent of control at 10^−7 M was less than 40% or the value of IC50 was less than 50 nM.); that for `Cc1cc(N(C)C)nc(N[C@H]2CC[C@@H](NC(=O)c3ccc(Br)o3)CC2)n1` [compound 2979, 5-bromo-N-(cis-4-{[4-(dimethylamino)-6-methylpyrimidin-2-yl]amino}cyclohexyl)-2-furamide], 1 (Class 1: The value of percent of control at 10^−7 M was less than 40% or the value of IC50 was less than 50 nM.); that for `Cc1cc(N(C)C)nc(N[C@H]2CC[C@@H](NC(=O)c3ccc(Cl)o3)CC2)n1` [compound 2980, 5-chloro-N-(cis-4-{[4-(dimethylamino)-6-methylpyrimidin-2-yl]amino}cyclohexyl)-2-furamide], 1 (Class 1: The value of percent of control at 10^−7 M was less than 40% or the value of IC50 was less than 50 nM.). Take `COc1ccc(C(=O)N[C@H]2CC[C@@H](Nc3nc(C)cc(N(C)C)n3)CC2)cc1C(F)(F)F` [compound 2981, N-(cis-4-{[4-(dimethylamino)-6-methylpyrimidin-2-yl]amino}cyclohexyl)-4-methoxy-3-(trifluoromethyl)benzamide]: the class was 2 (Class 2: The value of percent of control at 10^−7 M was from 40% to 60% or the value of IC′50 was from 50 nM to 200 nM.).
